Literature values in patent US6681132B1, “Sodium magnetic reasonance imaging used in diagnosing tumors and assessing response to treatment” (The Trustees of Columbia University in the City of New York, priority 1999, dated 2004).

Tested on: L cells
Settings: K+ loss exceeds Na+ gain; cited from earlier work

O=C(O)c1nn(Cc2ccc(Cl)cc2Cl)c2ccccc12 [lonidamine]
effect on total cellular monovalent cations: net reduction
